The record followed here is patent EP3623369A1, “NOVEL MORPHOLINYL AMINE COMPOUNDS FOR THE TREATMENT OF AUTOIMMUNE DISEASE” (F. Hoffmann-La Roche AG, priority 2018, dated 2020).

The structures appear in SMILES notation.

This test has as its target T1, hTLR7 (Homo sapiens, UniProt Q9NYK1).
T1 sequence (Q9NYK1 27-1049): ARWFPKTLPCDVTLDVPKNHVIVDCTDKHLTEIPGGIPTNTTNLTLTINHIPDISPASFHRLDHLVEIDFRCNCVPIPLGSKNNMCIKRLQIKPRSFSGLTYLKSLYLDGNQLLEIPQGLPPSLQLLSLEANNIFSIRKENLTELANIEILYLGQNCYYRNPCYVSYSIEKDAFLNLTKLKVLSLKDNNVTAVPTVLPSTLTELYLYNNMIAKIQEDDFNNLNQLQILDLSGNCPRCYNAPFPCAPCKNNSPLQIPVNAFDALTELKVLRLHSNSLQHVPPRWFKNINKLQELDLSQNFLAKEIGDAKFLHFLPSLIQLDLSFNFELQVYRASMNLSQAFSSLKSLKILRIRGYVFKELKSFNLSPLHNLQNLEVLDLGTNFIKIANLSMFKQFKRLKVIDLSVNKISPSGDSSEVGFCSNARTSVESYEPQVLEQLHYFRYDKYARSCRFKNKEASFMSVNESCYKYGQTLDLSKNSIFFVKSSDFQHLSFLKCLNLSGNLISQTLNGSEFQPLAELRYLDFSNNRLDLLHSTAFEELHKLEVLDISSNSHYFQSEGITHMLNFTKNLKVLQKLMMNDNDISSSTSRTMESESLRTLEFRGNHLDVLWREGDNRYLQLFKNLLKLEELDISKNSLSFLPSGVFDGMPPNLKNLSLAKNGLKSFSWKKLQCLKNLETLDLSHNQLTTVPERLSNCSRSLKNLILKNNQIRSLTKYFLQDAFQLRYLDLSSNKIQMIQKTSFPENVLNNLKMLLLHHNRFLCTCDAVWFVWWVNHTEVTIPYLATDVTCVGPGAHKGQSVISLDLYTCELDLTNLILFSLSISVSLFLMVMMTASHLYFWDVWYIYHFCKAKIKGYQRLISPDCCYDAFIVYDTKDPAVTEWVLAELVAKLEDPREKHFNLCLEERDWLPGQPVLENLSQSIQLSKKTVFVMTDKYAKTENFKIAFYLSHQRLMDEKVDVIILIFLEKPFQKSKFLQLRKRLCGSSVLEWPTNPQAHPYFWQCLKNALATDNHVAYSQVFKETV
Put plainly: HEK293-Blue-hTLR-7 cells assay (SEAP reporter, R848 stimulation). In kind it is cell-based. The settings on record: HEK293-Blue-hTLR7 cells, R848, 20 hrs; 0.003 is the lowest tested concentration; read-out: HEK/hTLR7 IC50. How it is done:
The following tests were carried out in order to determine the activity of the compounds of formula (I) or (Ia) in HEK293-Blue-hTLR-7/8/9 cells assay.
HEK293-Blue-hTLR-7 cells assay:
A stable HEK293-Blue-hTLR-7 cell line was purchased from InvivoGen (Cat.#: hkb-htlr7, San Diego, California, USA). These cells were originally designed for studying the stimulation of human TLR7 by monitoring the activation of NF-κB. A SEAP (secreted embryonic alkaline phosphatase) reporter gene was placed under the control of the IFN-β minimal promoter fused to five NF-κB and AP-1-binding sites. The SEAP was induced by activating NF-κB and AP-1 via stimulating HEK-Blue hTLR7 cells with TLR7 ligands. Therefore the reporter expression was declined by TLR7 antagonist under the stimulation of a ligand, such as R848 (Resiquimod), for incubation of 20 hrs. The cell culture supernatant SEAP reporter activity was determined using QUANTI-Blue™ kit (Cat.#: rep-qb1, Invivogen, San Diego, Ca, USA) at a wavelength of 640 nm, a detection medium that turns purple or blue in the presence of alkaline phosphatase.
HEK293-Blue-hTLR7 cells were incubated at a density of 250,000∼450,000 cells/mL in a volume of 170 µL in a 96-well plate in Dulbecco's Modified Eagle's medium (DMEM) containing 4.5 g/L glucose, 50 U/mL penicillin, […], […], 2 mM L-glutamine, 10% (v/v) heat-inactivated fetal bovine serum with addition of 20 µL test compound in a serial dilution in the presence of final DMSO at 1% and 10 µL of 20uM R848 in above DMEM, perform incubation under 37 °C in a CO2 incubator for 20 hrs. Then 20 µL of the supernatant from each well was incubated with 180 µL Quanti-blue substrate solution at 37 °C for 2 hrs and the absorbance was read at 620∼655 nm using a spectrophotometer. The signalling pathway that TLR7 activation leads to downstream NF-κB activation has been widely accepted, and therefore similar reporter assay was modified for evaluating TLR7 antagonist.
For `C[C@@H]1CN(c2ccc(C#N)n3nccc23)C[C@H](CN2Cc3ccc(OCCN(C)C)cc3C2)O1` [Example 28, 4-[(2S,6R)-2-[[5-[2-(dimethylamino)ethoxy]isoindolin-2-yl]methyl]-6-methyl-morpholin-4-yl]pyrazolo[1,5-a]pyridine-7-carbonitrile], the IC50 stood at 0.227 µM. Next, `C[C@@H]1CN(c2ccc(C#N)n3ncc(F)c23)C[C@H](CN2Cc3cc(N4CCNCC4)cnc3C2)O1` [Example 29, 3-fluoro-4-[(2R,6S)-2-methyl-6-[(3-piperazin-1-yl-5,7-dihydropyrrolo[3,4-b]pyridin-6-yl)methyl]morpholin-4-yl]pyrazolo[1,5-a]pyridine-7-carbonitrile]: 0.049 µM. The result for `C[C@@H]1CN(c2ccc(C#N)c3nccnc23)C[C@H](CN2Cc3cc(N4CCNCC4)cnc3C2)O1` [Example 30, 8-[(2R,6S)-2-methyl-6-[(3-piperazin-1-yl-5,7-dihydropyrrolo[3,4-b]pyridin-6-yl)methyl]morpholin-4-yl]quinoxaline-5-carbonitrile] reads 0.016 µM; that for `C[C@@H]1CN(c2ccc(Cl)c3ncccc23)C[C@H](CN2Cc3ccc(N4CCNCC4)cc3C2)O1` [Example 31, (2R,6S)-4-(8-chloro-5-quinolyl)-2-methyl-6-[(5-piperazin-1-ylisoindolin-2-yl)methyl]morpholine], 0.029 µM; that for `C[C@@H]1CN(c2ccc(Cl)c3ncccc23)C[C@H](CN2CCc3cc(N4CCNCC4)ccc3C2)O1` [Example 32, (2R,6S)-4-(8-chloro-5-quinolyl)-2-methyl-6-[(6-piperazin-1-yl-3,4-dihydro-1H-isoquinolin-2-yl)methyl]morpholine], 0.039 µM. As for `C[C@@H]1CN(c2ccc(Cl)c3nccnc23)C[C@H](CN2Cc3ccc(N4CCNCC4)cc3C2)O1` [Example 33, (2R,6S)-4-(8-chloroquinoxalin-5-yl)-2-methyl-6-[(5-piperazin-1-ylisoindolin-2-yl)methyl]morpholine], the IC50 was 0.009 µM.

With `C[C@@H]1CN(c2ccc(Cl)c3nccnc23)C[C@H](CN2CCc3cc(N4CCNCC4)ccc3C2)O1` [Example 34, (2R,6S)-4-(8-chloroquinoxalin-5-yl)-2-methyl-6-[(6-piperazin-1-yl-3,4-dihydro-1H-isoquinolin-2-yl)methyl]morpholine], the IC50 was 0.023 µM.

On to `C[C@@H]1CN(c2ccc(C#N)c3nccnc23)C[C@H](CN2Cc3ccc(N4CCN(C5CC5)CC4)cc3C2)O1` [Example 35, 8-[(2S,6R)-2-[[5-(4-cyclopropylpiperazin-1-yl)isoindolin-2-yl]methyl]-6-methyl-morpholin-4-yl]quinoxaline-5-carbonitrile], for which the IC50 stood at 0.041 µM. In the case of `CC1CN(c2ccc3c(c2)CN(C[C@H]2CN(c4ccc(C#N)c5nccnc45)C[C@@H](C)O2)C3)CCN1` (stereo partly drawn) [Example 36, 8-[(2R,6S)-2-methyl-6-[[5-(3-methylpiperazin-1-yl)isoindolin-2-yl]methyl]morpholin-4-yl]quinoxaline-5-carbonitrile], the IC50 is 0.01 µM. The result for `COCCN1CCN(c2ccc3c(c2)CN(C[C@H]2CN(c4ccc(C#N)c5nccnc45)C[C@@H](C)O2)C3)CC1` [Example 37, 8-[(2S,6R)-2-[[5-[4-(2-methoxyethyl)piperazin-1-yl]isoindolin-2-yl]methyl]-6-methyl-morpholin-4-yl]quinoxaline-5-carbonitrile] reads 0.05 µM; that for `C[C@@H]1CN(c2ccc(C#N)c3nccnc23)C[C@H](CN2Cc3ccc(N4CCNC5(CC5)C4)cc3C2)O1` [Example 38, 8-[(2S,6R)-2-[[5-(4,7-diazaspiro[2.5]octan-7-yl)isoindolin-2-yl]methyl]-6-methyl-morpholin-4-yl]quinoxaline-5-carbonitrile], 0.023 µM; that for `C[C@@H]1CN(c2ccc(C#N)c3nccnc23)C[C@H](CN2Cc3ccc(N4CCN5CCCCC5C4)cc3C2)O1` (stereo partly drawn) [Example 40, 8-[(2S,6R)-2-[[5-(1,3,4,6,7,8,9,9a-octahydropyrido[1,2-a]pyrazin-2-yl)isoindolin-2-yl]methyl]-6-methyl-morpholin-4-yl]quinoxaline-5-carbonitrile], 0.033 µM. Take `C[C@@H]1CN(c2ccc(C#N)c3nccnc23)C[C@H](CN2Cc3ccc(N4C5CCC4CNC5)cc3C2)O1` [Example 41, 8-[(2S,6R)-2-[[5-(3,8-diazabicyclo[3.2.1]octan-8-yl)isoindolin-2-yl]methyl]-6-methyl-morpholin-4-yl]quinoxaline-5-carbonitrile]: the IC50 amounted to 0.059 µM. On to `C[C@@H]1CN(c2ccc(C#N)c3ncccc23)C[C@H](CN2Cc3ccc(N4CC5CCC(C4)N5)cc3C2)O1` [Example 42, 5-[(2S,6R)-2-[[5-(3,8-diazabicyclo[3.2.1]octan-3-yl)isoindolin-2-yl]methyl]-6-methyl-morpholin-4-yl]quinoline-8-carbonitrile], for which the IC50 amounted to 0.062 µM. `C[C@@H]1CN(c2ccc(C#N)c3ncccc23)C[C@H](CN2Cc3ccc(N4C5CCC4CNC5)cc3C2)O1` [Example 43, 5-[(2S,6R)-2-[[5-(3,8-diazabicyclo[3.2.1]octan-8-yl)isoindolin-2-yl]methyl]-6-methyl-morpholin-4-yl]quinoline-8-carbonitrile]: the IC50 came to 0.06 µM. On to `C[C@@H]1CN(c2ccc(C#N)c3ncccc23)C[C@H](CN2Cc3ccc(N4C5CNCC4COC5)cc3C2)O1` [Example 46, 5-[(2R,6S)-2-methyl-6-[[5-(3-oxa-7,9-diazabicyclo[3.3.1]nonan-9-yl)isoindolin-2-yl]methyl]morpholin-4-yl]quinoline-8-carbonitrile], for which the IC50 was determined as 0.074 µM.

For the molecule `C[C@@H]1CN(c2ccc(C#N)c3ncccc23)C[C@H](CN2Cc3ccc(N4CC5(CNC5)C4)cc3C2)O1` [Example 47, 5-[(2S,6R)-2-[[5-(2,6-diazaspiro[3.3]heptan-2-yl)isoindolin-2-yl]methyl]-6-methyl-morpholin-4-yl]quinoline-8-carbonitrile], the IC50 came to 0.084 µM. The result for `CC1c2ccc(N3CCNCC3)cc2CN1C[C@H]1CN(c2ccc(C#N)c3ncccc23)C[C@@H](C)O1` (stereo partly drawn) [Example 48, 5-[(2R,6S)-2-methyl-6-[(1-methyl-5-piperazin-1-yl-isoindolin-2-yl)methyl]morpholin-4-yl]quinoline-8-carbonitrile] reads 0.238 µM. Consider `C[C@@H]1CN(c2ccc(C#N)c3nccnc23)C[C@H](CN2Cc3ccc(N4CC5COCC(C4)N5)cc3C2)O1` [Example 49, 8-[(2R,6S)-2-methyl-6-[[5-(3-oxa-7,9-diazabicyclo[3.3.1]nonan-7-yl)isoindolin-2-yl]methyl]morpholin-4-yl]quinoxaline-5-carbonitrile], for which the IC50 was 0.05 µM. As for `CCOC(=O)C1CNCCN1c1ccc2c(c1)CN(C[C@H]1CN(c3ccc(C#N)c4ncccc34)C[C@@H](C)O1)C2` (stereo partly drawn) [Example 50, Ethyl 1-[2-[[(2S,6R)-4-(8-cyano-5-quinolyl)-6-methyl-morpholin-2-yl]methyl]isoindolin-5-yl] piperazine-2-carboxylate], the IC50 turned out to be 0.085 µM.
